According to ChEMBL document CHEMBL4004870, “Synthesis of dihydroimidazole tethered imidazolinethiones and their activity as novel antagonists of the nuclear retinoic acid receptor-related orphan receptors (RORs)” (Bioorg Med Chem Lett, 2017):

Tests used:
[1] = biological target: T1, Nuclear receptor ROR-beta (Rattus norvegicus, UniProt P45446); experiment: Antagonist activity at rat Gal4-fused DBD RORbeta LBD (Pro-205-end) expressed in TRex-CHOK1 cells after 20 hrs by luciferase reporter gene assay; assay type: cell-based
T1 sequence (P45446 whole entry): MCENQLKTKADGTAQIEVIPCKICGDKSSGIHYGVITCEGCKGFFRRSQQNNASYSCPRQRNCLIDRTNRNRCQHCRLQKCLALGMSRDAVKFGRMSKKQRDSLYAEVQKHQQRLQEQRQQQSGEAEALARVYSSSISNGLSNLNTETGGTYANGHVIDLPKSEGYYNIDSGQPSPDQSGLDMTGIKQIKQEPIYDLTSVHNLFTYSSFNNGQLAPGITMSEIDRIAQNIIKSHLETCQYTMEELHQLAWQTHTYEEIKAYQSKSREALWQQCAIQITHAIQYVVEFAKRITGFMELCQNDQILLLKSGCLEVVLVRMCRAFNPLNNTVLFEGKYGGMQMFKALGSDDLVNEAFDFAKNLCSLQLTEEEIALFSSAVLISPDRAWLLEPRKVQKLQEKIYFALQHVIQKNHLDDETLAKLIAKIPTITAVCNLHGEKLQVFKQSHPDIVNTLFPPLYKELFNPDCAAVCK

[2] = biological target: T2, Nuclear receptor ROR-gamma (Mus musculus, UniProt P51450); experiment: Antagonist activity at mouse Gal4-fused DBD RORgamma LBD (Pro-261-end) expressed in TRex-CHOK1 cells after 20 hrs by luciferase reporter gene assay; assay type: cell-based
T2 sequence (P51450 whole entry): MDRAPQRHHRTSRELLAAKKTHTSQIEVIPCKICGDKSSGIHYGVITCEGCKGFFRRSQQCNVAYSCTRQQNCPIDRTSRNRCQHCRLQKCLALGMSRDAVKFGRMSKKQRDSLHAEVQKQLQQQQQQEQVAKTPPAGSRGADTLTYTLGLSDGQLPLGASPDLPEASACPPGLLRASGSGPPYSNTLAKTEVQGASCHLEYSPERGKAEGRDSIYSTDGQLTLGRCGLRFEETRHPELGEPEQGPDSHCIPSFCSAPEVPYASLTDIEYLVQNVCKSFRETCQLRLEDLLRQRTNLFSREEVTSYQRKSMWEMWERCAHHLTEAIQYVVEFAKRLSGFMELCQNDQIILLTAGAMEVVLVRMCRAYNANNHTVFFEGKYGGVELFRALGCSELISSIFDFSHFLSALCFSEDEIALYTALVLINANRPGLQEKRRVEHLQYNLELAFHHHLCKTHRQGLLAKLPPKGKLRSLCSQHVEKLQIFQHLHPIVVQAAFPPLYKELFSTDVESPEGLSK

| SMILES | IC50 [1] [µM] | IC50 [2] [µM] |
| --- | --- | --- |
| Fc1cccc(CC2=N[C@@H](CCCCN3C[C@H](Cc4ccccc4)N(CCc4ccccc4)C3=S)CN2)c1 | 12.4 | 6.6 |
| CCCC1=N[C@@H](CCCCN2C[C@H](Cc3ccccc3)N(CCC3CC4CCC3C4)C2=S)CN1 (stereo not given in full) | 17 | 9.3 |
| CCCC1=N[C@@H](CCCCN2C[C@@H](C(C)(C)C)N(CCc3ccccc3)C2=S)CN1 | 22.3 | 11.8 |
| S=C1N(CCCC[C@H]2CNC(CCC3CCCC3)=N2)C[C@H](Cc2ccccc2)N1CCc1ccccc1 | 9.1 | 5.6 |
| COc1cccc(CC2=N[C@@H](CCCCN3C[C@H](Cc4ccccc4)N(CCc4ccccc4)C3=S)CN2)c1 | 8.4 | 6.3 |
| C=CCC1=N[C@@H](CCCCN2C[C@H](Cc3ccccc3)N(CCc3ccccc3)C2=S)CN1 | 14.3 | 10.2 |
| CC(CC1=N[C@@H](CCCCN2C[C@H](Cc3ccccc3)N(CCc3ccccc3)C2=S)CN1)c1ccccc1 (stereo not given in full) | 10.9 | 6.5 |
| CCCC1=N[C@@H](CCCCN2C[C@H](Cc3ccccc3)N(CCC3C4CC5CC(C4)CC3C5)C2=S)CN1 (stereo not given in full) | 10.7 | 7.9 |
| C/C=C/C1=N[C@@H](CCCCN2C[C@H](Cc3ccccc3)N(CCc3ccccc3)C2=S)CN1 | 12.5 | 5.8 |
| Fc1ccc(CC2=N[C@@H](CCCCN3C[C@H](Cc4ccccc4)N(CCc4ccccc4)C3=S)CN2)cc1 | 12.4 | 7.7 |
| Cc1cccc(CC2=N[C@@H](CCCCN3C[C@H](Cc4ccccc4)N(CCc4ccccc4)C3=S)CN2)c1 | 9 | 6.3 |
| CCCC[C@H]1CN(CCCC[C@H]2CNC(CCC)=N2)C(=S)N1CCc1ccccc1 | 17.5 | 10.2 |
| CCCC1=N[C@@H](CCCCN2C[C@H](Cc3ccccc3)N(CC3CCC(C)CC3)C2=S)CN1 (stereo not given in full) | 21.1 | 13.7 |
| S=C1N(CCCC[C@H]2CNC(CC3CCCCC3)=N2)C[C@H](Cc2ccccc2)N1CCc1ccccc1 | 8.3 | 5.1 |
| CCCC1=N[C@@H](CCCCN2C[C@H](Cc3ccccc3)N(CCCC3CCCC3)C2=S)CN1 | 10.2 | 6.4 |
